Structures can show the parent of a compound that is named as a salt.
Experiments:
[1] = target: T1, human recombinant serotonin 5-HT2A receptor (Homo sapiens, UniProt P28223); test: Binding affinity for serotonin 5-HT2A receptor ([3H]Ketanserin); conditions: CHO-K1 expressed receptor, 1 nM [3H]Ketanserin
T1 construct: purchased PerkinElmer Life and Analytical Sciences, USA; host or cells: CHO-K1
Method: Receptor binding affinities of the compounds for serotonin receptors were measured by the method described in the literature [Park W K et al., Pharmacol Biochem Behav. 2005, 82(2), 361-372].
For serotonin 5-HT2A binding, an aliquot of human recombinant serotonin 5-HT2A receptor (PerkinElmer Life and Analytical Sciences, USA) expressed in CHO-K1 cells (5 ug/well) and 1 nM [^3H]Ketanserin (PerkinElmer) were used in the presence of mianserin (20 uM) as nonspecific. The reaction mixture was incubated for 60 min at 27 using 50 mM Tris-HCl (pH 7.4) buffer containing 4 mM CaCl2 and 0.1% ascorbic acid, and harvested through filtermate A glass fiber filter (Wallac, Finland) presoaked in 0.5% polyethyleneimine (PEI) by microbeta filtermate-96 harvester (PerkinElmer) to terminate the reaction, and then washed with ice cold 50 mM Tris-HCl buffer solution (pH 7.4). The filter was then covered with MeltiLex, sealed in a sample bag, dried in an oven. The radioactivity retained in the filter was finally counted using MicroBeta Plus (Wallac).
(§1) The binding affinity (IC50) of a compound for the receptor was calculated by computerized nonlinear regression analysis (GraphPad Prism Program, San Diego, USA) using 7-8 varied concentrations of the compound run in duplicate tubes.

[2] = target: T2, human serotonin transporter (Homo sapiens, UniProt P31645); test: Binding affinity for serotonin transporter ([3H]Imipramine); conditions: HEK-293 membranes, 2 nM [3H]Imipramine
T2 construct: purchased PerkinElmer; host or cells: HEK-293
T2 sequence (P31645 whole entry): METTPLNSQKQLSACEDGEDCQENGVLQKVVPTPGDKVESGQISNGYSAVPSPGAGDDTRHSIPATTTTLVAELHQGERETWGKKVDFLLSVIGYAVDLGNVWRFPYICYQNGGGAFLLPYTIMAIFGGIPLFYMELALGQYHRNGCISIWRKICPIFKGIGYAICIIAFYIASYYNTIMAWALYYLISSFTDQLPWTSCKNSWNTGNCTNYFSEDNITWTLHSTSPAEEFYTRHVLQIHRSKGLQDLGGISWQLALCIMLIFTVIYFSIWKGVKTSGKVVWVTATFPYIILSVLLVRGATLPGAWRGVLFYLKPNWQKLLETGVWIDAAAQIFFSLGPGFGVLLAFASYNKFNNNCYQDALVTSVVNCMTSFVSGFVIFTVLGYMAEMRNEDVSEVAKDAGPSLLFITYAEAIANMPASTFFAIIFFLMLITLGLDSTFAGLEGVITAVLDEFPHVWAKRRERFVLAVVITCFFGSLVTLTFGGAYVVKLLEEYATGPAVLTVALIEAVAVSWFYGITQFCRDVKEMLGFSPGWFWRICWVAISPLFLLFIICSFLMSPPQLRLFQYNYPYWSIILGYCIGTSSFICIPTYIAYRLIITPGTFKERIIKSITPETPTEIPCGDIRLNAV
Method: For serotonin transporter binding assays, a reaction mixture with a final volume of 0.25 ml was prepared by mixing a test compound, human serotonin transporter membrane expressed in HEK-293 cells (PerkinElmer, 5 ug/well), [^3H]Imipramine (PerkinElmer, 2 nM) and 50 mM Tris-HCl (pH 7.4) buffer containing 120 mM NaCl and 5 mM KCl. The reaction mixture was incubated for 30 min at 27, and harvested through filtermate. A glass fiber filter presoaked in 0.5% PEI with ice cold 50 mM Tris-HCl buffer (pH 7.4) containing 0.9% NaCl.

[3] = target: T3, human recombinant 5-HT2C receptor (Homo sapiens, UniProt P28335); test: Binding affinity for serotonin 5-HT2C receptor ([3H]Mesulergine); conditions: CHO-K1 membranes, 1.3 nM [3H]Mesulergine
T3 construct: purchased PerkinElmer
T3 sequence (P28335 33-458): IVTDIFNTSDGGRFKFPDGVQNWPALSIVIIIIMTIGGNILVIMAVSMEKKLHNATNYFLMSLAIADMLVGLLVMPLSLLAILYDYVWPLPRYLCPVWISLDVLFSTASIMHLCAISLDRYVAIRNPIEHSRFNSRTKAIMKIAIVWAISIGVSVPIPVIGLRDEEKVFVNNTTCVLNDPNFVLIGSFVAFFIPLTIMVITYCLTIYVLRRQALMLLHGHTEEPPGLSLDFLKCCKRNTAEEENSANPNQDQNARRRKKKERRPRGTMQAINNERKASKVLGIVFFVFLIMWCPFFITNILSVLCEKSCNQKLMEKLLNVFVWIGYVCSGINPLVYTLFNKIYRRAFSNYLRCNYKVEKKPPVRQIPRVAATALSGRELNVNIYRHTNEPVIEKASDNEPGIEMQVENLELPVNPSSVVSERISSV
Method: Receptor binding affinities of the compounds for serotonin receptors were measured by the method described in the literature [Park W K et al., Pharmacol Biochem Behav.
as §1
Nonspecific binding was determined using 100 uM mianserin. The incubations were performed for 60 min at 27, and these were terminated by rapid filtration through filtermate. A glass fiber filter presoaked in 0.5% PEI.

T1 sequence (P28223 whole entry): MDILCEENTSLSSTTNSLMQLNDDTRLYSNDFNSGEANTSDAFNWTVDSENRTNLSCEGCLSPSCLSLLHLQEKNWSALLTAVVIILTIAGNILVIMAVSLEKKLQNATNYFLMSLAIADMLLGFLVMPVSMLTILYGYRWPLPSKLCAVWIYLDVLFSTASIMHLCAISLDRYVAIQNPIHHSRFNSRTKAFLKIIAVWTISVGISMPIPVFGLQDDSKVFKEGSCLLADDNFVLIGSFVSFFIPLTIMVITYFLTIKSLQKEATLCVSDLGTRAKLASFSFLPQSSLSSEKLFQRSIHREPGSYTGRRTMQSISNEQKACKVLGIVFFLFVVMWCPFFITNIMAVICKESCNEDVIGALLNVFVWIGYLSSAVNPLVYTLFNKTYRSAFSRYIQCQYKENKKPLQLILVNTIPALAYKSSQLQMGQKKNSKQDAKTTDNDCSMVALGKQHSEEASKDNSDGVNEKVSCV

| SMILES | IC50 [1] [µM] | IC50 [2] [µM] | IC50 [3] [µM] |
| --- | --- | --- | --- |
| Cc1cccc(N2CCN(CCCNC(=O)c3cc(-c4ccccc4)n(CC4CCCCC4)c3C)CC2)c1C [Example 21, 1-(Cyclohexylmethyl)-N-(3-(4-(2,3-dimethylphenyl)piperazin-1-yl)propyl)-2-methyl-5-phenyl-1H-pyrrole-3-carboxamide] | 1.23 | 0.352 | 0.638 |
| Cc1c(C(=O)NCCCN2CCN(c3cccc(Cl)c3Cl)CC2)cc(-c2ccccc2)n1CC1CCCCC1 [Example 22, 1-(cyclohexylmethyl)-N-(3-(4-(2,3-dichlorophenyl)piperazin-1-yl)propyl)-2-methyl-5-phenyl-1H-pyrrole-3-carboxamide] | 4.38 | 0.412 | 1.03 |
| Cc1[nH]c(-c2ccccc2)cc1C(=O)NCCCN1CCN(c2cccc(Cl)c2)CC1 [Example 23, N-(3-(4-(3-chlorophenyl)piperazin-1-yl)propyl)-2-methyl-5-phenyl-1H-pyrrole-3-carboxamide] | 0.245 | 0.092 | 0.28 |
| Cc1cccc(N2CCN(CCCNC(=O)c3cc(-c4ccccc4)[nH]c3C)CC2)c1C [Example 24, N-(3-(4-(2,3-dimethylphenyl)piperazin-1-yl)propyl)-2-methyl-5-phenyl-1H-pyrrole-3-carboxamide] | 0.3 | 0.077 | 0.615 |
| Cc1[nH]c(-c2ccccc2)cc1C(=O)NCCCN1CCN(c2cccc(Cl)c2Cl)CC1 [Example 25, N-(3-(4-(2,3-dichlorophenyl)piperazin-1-yl)propyl)-2-methyl-5-phenyl-1H-pyrrole-3-carboxamide] | 0.3 | 0.133 | 0.599 |
| Cc1cccc(N2CCN(CCCNC(=O)c3cc(-c4ccccc4)n(CC(C)C)c3C)CC2)c1C [Example 27, N-(3-(4-(2,3-dimethylphenyl)piperazin-1-yl)propyl)-1-isobutyl-2-methyl-5-phenyl-1H-pyrrole-3-carboxamide] | 0.897 | 0.35 | 1.3 |
| Cc1c(C(=O)NCCCN2CCN(c3cccc(Cl)c3Cl)CC2)cc(-c2ccccc2)n1CC(C)C [Example 28, N-(3-(4-(2,3-dichlorophenyl)piperazin-1-yl)propyl)-1-isobutyl-2-methyl-5-phenyl-1H-pyrrole-3-carboxamide] | 0.406 | 0.381 | 0.342 |
| CCCn1c(-c2ccccc2)cc(C(=O)N(C)CCCN2CCN(c3cccc(Cl)c3Cl)CC2)c1C [Example 31, N-(3-(4-(2,3-dichlorophenyl)piperazin-1-yl)propyl)-N,2-dimethyl-5-phenyl-1-propyl-1H-pyrrole-3-carboxamide hydrochloride] | 0.0332 | 0.102 | 0.0207 |
| CCCn1c(-c2ccccc2)cc(C(=O)NCCCCN2CCN(c3cccc(C)c3C)CC2)c1C [Example 33, N-(4-(4-(2,3-dimethylphenyl)piperazin-1-yl)butyl)-2-methyl-5-phenyl-1-propyl-1H-pyrrole-3-carboxamide hydrochloride] | 0.792 | 0.076 | 0.149 |
| CCCn1c(-c2ccccc2)cc(C(=O)NCCCCN2CCN(c3cccc(Cl)c3Cl)CC2)c1C [Example 34, N-(4-(4-(2,3-dichlorophenyl)piperazin-1-yl)butyl)-2-methyl-5-phenyl-1-propyl-1H-pyrrole-3-carboxamide hydrochloride] | 0.104 | 0.076 | 0.0209 |
| Cc1cccc(N2CCN(CCCCNC(=O)c3cc(-c4ccccc4)n(C)c3C)CC2)c1C [Example 35, N-(4-(4-(2,3-dimethylphenyl)piperazin-1-yl)butyl)-1,2-dimethyl-5-phenyl-1H-pyrrole-3-carboxamide hydrochloride] | 0.061 | 0.149 | 0.061 |
| Cc1c(C(=O)NCCCCN2CCN(c3cccc(Cl)c3Cl)CC2)cc(-c2ccccc2)n1C [Example 36, N-(4-(4-(2,3-dichlorophenyl)piperazin-1-yl)butyl)-1,2-dimethyl-5-phenyl-1H-pyrrole-3-carboxamide hydrochloride] | 0.028 | 0.093 | 0.032 |
| Cc1c(C(=O)N(C)CCCN2CCN(c3cccc(Cl)c3Cl)CC2)cc(-c2ccccc2)n1C [Example 37, N-(3-(4-(2,3-dichlorophenyl)piperazin-1-yl)propyl)-N,1,2-trimethyl-5-phenyl-1H-pyrrole-3-carboxamide hydrochloride] | 0.0388 | 0.098 | 0.0345 |
| Cc1[nH]c(-c2ccccc2)cc1C(=O)NCCN1CCN(c2cccc(Cl)c2Cl)CC1 [Example 38, N-(2-(4-(2,3-dichlorophenyl)piperazin-1-yl)ethyl)-2-methyl-5-phenyl-1H-pyrrole-3-carboxamide hydrochloride] | 0.04 | 0.087 | 0.037 |
| CCCn1c(-c2ccccc2)cc(C(=O)NCCN2CCN(c3cccc(Cl)c3Cl)CC2)c1C [Example 39, N-(2-(4-(2,3-dichlorophenyl)piperazin-1-yl)ethyl)-2-methyl-5-phenyl-1-propyl-1H-pyrrole-3-carboxamide hydrochloride] | 0.408 | 0.032 | 0.31 |
| Cc1cccc(N2CCN(CCCCNC(=O)c3cc(-c4ccccc4)[nH]c3C)CC2)c1C [Example 40, N-(4-(4-(2,3-dimethylphenyl)piperazin-1-yl)butyl)-2-methyl-5-phenyl-1H-pyrrole-3-carboxamide hydrochloride] | 0.01 | 0.021 | 0.063 |
| Cc1[nH]c(-c2ccccc2)cc1C(=O)NCCCCN1CCN(c2cccc(Cl)c2Cl)CC1 [Example 41, N-(4-(4-(2,3-dichlorophenyl)piperazin-1-yl)butyl)-2-methyl-5-phenyl-1H-pyrrole-3-carboxamide hydrochloride] | 0.013 | 0.021 | 0.014 |
| CCn1c(-c2ccccc2)cc(C(=O)NCCCCN2CCN(c3cccc(C)c3C)CC2)c1C [Example 42, N-(4-(4-(2,3-dimethylphenyl)piperazin-1-yl)butyl)-1-ethyl-2-methyl-5-phenyl-1H-pyrrole-3-carboxamide hydrochloride] | 0.01 | 0.065 | 0.017 |
| CCn1c(-c2ccccc2)cc(C(=O)NCCCCN2CCN(c3cccc(Cl)c3Cl)CC2)c1C [Example 43, N-(4-(4-(2,3-dichlorophenyl)piperazin-1-yl)butyl)-1-ethyl-2-methyl-5-phenyl-1H-pyrrole-3-carboxamide hydrochloride] | 0.028 | 0.064 | 0.028 |
| Cc1cccc(N2CCN(CCCNC(=O)c3cc(-c4ccc(Cl)cc4)[nH]c3C)CC2)c1C [Example 44, 5-(4-chlorophenyl)-N-(3-(4-(2,3-dimethylphenyl)piperazin-1-yl)propyl)-2-methyl-1H-pyrrole-3-carboxamide hydrochloride] | 0.092 | 0.019 | 0.189 |
| Cc1[nH]c(-c2ccc(Cl)cc2)cc1C(=O)NCCCN1CCN(c2cccc(Cl)c2Cl)CC1 [Example 45, 5-(4-chlorophenyl)-N-(3-(4-(2,3-dichlorophenyl)piperazin-1-yl)propyl)-2-methyl-1H-pyrrole-3-carboxamide hydrochloride] | 0.105 | 0.056 | 0.106 |
| Cc1cccc(N2CCN(CCCCNC(=O)c3cc(-c4ccc(Cl)cc4)[nH]c3C)CC2)c1C [Example 46, 5-(4-chlorophenyl)-N-(4-(4-(2,3-dimethylphenyl)piperazin-1-yl)butyl)-2-methyl-1H-pyrrole-3-carboxamide hydrochloride] | 0.032 | 0.098 | 0.088 |
